Test results from patent publication US20150320748A1, “AGENT FOR INHIBITING EXPRESSION OF LIPID METABOLISM RELATED MRNA” (KOWA CO., LTD., priority 2011, published 2015).

What was measured:
[1] = molecular target: T1, cholesterol ester transfer protein (CETP) (Homo sapiens, UniProt P11597); test: CETP inhibitory effect; type: biochemical; conditions: no method or values printed
T1 sequence (P11597 18-493): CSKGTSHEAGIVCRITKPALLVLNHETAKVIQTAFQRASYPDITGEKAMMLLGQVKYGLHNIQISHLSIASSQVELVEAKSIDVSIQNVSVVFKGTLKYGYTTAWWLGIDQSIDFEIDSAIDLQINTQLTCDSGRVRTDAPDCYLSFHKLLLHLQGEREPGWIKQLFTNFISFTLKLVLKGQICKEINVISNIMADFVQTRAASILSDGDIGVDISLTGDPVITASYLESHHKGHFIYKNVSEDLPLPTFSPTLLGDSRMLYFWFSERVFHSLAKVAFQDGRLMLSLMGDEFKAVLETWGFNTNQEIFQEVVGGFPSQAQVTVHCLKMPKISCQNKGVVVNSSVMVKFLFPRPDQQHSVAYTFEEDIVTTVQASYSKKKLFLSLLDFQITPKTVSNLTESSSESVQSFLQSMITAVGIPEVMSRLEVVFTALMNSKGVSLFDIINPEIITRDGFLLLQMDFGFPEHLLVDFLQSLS

[2] = test system: SCD-1 mRNA; test: Expression level of SCD-1 mRNA in HepG2 cells by real-time quantitative RT-PCR; type: cell-based, human; conditions: 0.1, 1, 10 mM DMSO solutions added at 1 to 1000, corrected by β-Actin mRNA, FIG. 3
Description: More specifically, the HepG2 cells were seeded on a 24-well plate at a concentration of 2×10^5 cells/well, and cultured overnight. […] The mixture was cultured for 8 hours in a CO2 incubator at 37° C., and then 500 μL of ISOGEN (Nippon Gene Co., Ltd., catalogue No. 31-02501) was added, and the total RNA was extracted. From the extracted total RNA, cDNA was synthesized using High Capacity cDNA Reverse Transcription kit (Applied Biosystems, catalogue No. 4368813). The expression level of human SCD-1 was measured using a primer 5′-[sequence]-3′ (SEQ ID NO. 6), an antisense primer 5′-[sequence]-3′ (SEQ ID NO. 7), which are specific to human SCD-1, and Fast SYBR Green master mix (Applied Biosystems, catalogue No. 4385614). The measurement instrument was 7900HT Fast Realtime PCR system.
The measurement value was corrected by the expression level of β-Actin mRNA.

[3] = test system: SREBP1c mRNA; test: Expression level of SREBP1c mRNA in HepG2 cells by real-time quantitative RT-PCR; type: cell-based, human; conditions: 0.1, 1, 10 mM DMSO solutions added at 1 to 1000, corrected by β-Actin mRNA, FIG. 2
Description: The test compound 2 was added to the HepG2 cells of human liver cancer cell line, cultured for 24 hours, and then the expression level of SREBP1c mRNA was measured by real-time quantitative RT-PCR. More specifically, the HepG2 cells were seeded on a 24-well plate at a concentration of 2×10^5 cells/well, and cultured overnight. The test compound 2 was dissolved in dimethyl sulf oxide (DMSO) at concentrations of 0.1 mM, 1 mM, and 10 mM, and added to the culture solution at the rate of 1 to 1000. The mixture was cultured for 8 hours in a CO2 incubator at 37° C., and then 500 μL of ISOGEN (Nippon Gene Co., Ltd., catalogue No. 31-02501) was added, and the total RNA was extracted. […] The expression level of human SREBP1c mRNA was measured using a TaqMan probe 5′-[sequence]-3′ (SEQ ID NO. 3), a sense primer: 5′-[sequence]-3′ (SEQ ID NO. 4), and an antisense primer 5′-[sequence]-3′ (SEQ ID NO. 5), which are specific to human SREBP1c, and TaqMan Fast Universal PCR Master Mix (Applied Biosystems, catalogue No. 4367846). […]
The measurement value was corrected by the expression level of β-Actin mRNA. The expression level of SREBP1c mRNA in the cells mixed with DMSO alone was set at 1, and the expression level of SREBP1c mRNA in the cells mixed with the test compound 2 was calculated as relative value.

| CETP inhibitory effect (test compound 2 compared with Anacetrapib) [1] | Structure (SMILES) | decrease of the expression level of SCD-1 mRNA (relative value, DMSO alone = 1) [2] | decrease of the expression level of SREBP1c mRNA (relative value, DMSO alone = 1) [3] |
| --- | --- | --- | --- |
| equal | COc1cc(F)c(C(C)C)cc1-c1ccc(C(F)(F)F)cc1CN1C(=O)O[C@H](c2cc(C(F)(F)F)cc(C(F)(F)F)c2)[C@@H]1C [Anacetrapib, (4S,5R) -5-[3,5-bis(trifluoromethyl)phenyl]-3-({2-[4-fluoro-2-methoxy-5-(propane-2-yl)phenyl]-5-(trifluoromethyl)phenyl}methyl)-4-methyl-1,3-oxazolidine-2-one, reference compound] |  |  |
| equal | CCN(C[C@H]1CC[C@H](CC(=O)O)CC1)c1ccc(C(F)(F)F)cc1CN(c1ncc(OCCS(C)(=O)=O)cn1)[C@@H](C)c1cc(C(F)(F)F)cc(C(F)(F)F)c1 [compound 2] | evidently stronger than that of Anacetrapib | evidently stronger than that of Anacetrapib |
